Assay results taken from patent US12138256B2, “Treatment of cardiopulmonary disorders” (Bayer Aktiengesellschaft, priority 2021, dated 2024).

Tested on: acetylcholine-induced bronchospasm
Test: Bronchorelaxation in vivo: acetylcholine-induced bronchoconstriction in Brown Norway rats, RL and Cdyn (C-3.2)
Design: species or system rat
Conditions: inhaled 60 minutes before provocation; tiotropium 1 μg/kg; comparative example 11 1, 10 and 100 μg/kg
Procedure: The bronchoconstriction model (see Hoymann H G. Lung function measurements in rodents in safety pharmacology studies. Front Pharmacol 2012; 3:156) used Male Brown Norway rats (Charles River, Sulzfeld, Germany; 10-12 weeks old) randomized to three treatment groups (comparative example 11, 1 μg/kg, 10 μg/kg, and 100 μg/kg; n=12-13), one positive control group (tiotropium 1 μg/kg; n=12), and one vehicle control group (n=17). Animals were treated with the inhaled test compounds 60 minutes before provocation. Comparative example 11, vehicle, or tiotropium were aerosolized using a micro feeding system and a dispersion nozzle operated with pressurized air. The aerosol concentration was determined by filter sampling with gravimetrical analysis and monitored continuously by a photometer. The lung-deposited doses were assessed from the inhalation dose (Raabe O G, Al-Bayati M A, Teague S V, Rasolt A. Regional Deposition of Inhaled Monodisperse Coarse and Fine Aerosol Particles in Small Laboratory Animals. The Annals of Occupational Hygiene 1988; 32:53-63.). […] After reaching a steady state in respiration, lung function of the spontaneously breathing animal was recorded as baseline values for ≥2 minutes; amongst other parameters, lung resistance (=RL) and dynamic compliance (=Cdyn) were used to assess bronchoconstriction. […]

C[N+]1(C)[C@@H]2C[C@@H](OC(=O)C(O)(c3cccs3)c3cccs3)C[C@H]1[C@@H]1O[C@@H]12 [tiotropium, reference compound]
bronchodilatory efficacy (RL): inhibited acetylcholine-induced bronchospasm
